Laboratory results from ChEMBL document CHEMBL4130624, “Optimization of 1,4-Oxazine β-Secretase 1 (BACE1) Inhibitors Toward a Clinical Candidate” (J Med Chem, 2018).

Experiments:
Rattus norvegicus [1] = test: Toxicity in Sprague-Dawley rat assessed as effect on body weight at 225 mg/kg/day, po administered via gavage for 1 month; type: organism-based; conditions: in vivo
Canis familiaris [2] = test: Half life in Beagle dog at 1 mg/kg, iv administered as bolus dose by LC-MS/MS analysis; type: ADME, organism-based, Canis lupus familiaris; conditions: in vivo
Cytochrome P450 3A4 = Cytochrome P450 3A4 (Homo sapiens, UniProt P08684); test: Reversible inhibition of recombinant human CYP3A4 by fluorescence-based assay; type: ADME
Rattus norvegicus [3] = test: Systemic clearance in Sprague-Dawley rat at 2.5 mg/kg, iv administered as bolus dose by LC-MS/MS analysis relative to liver blood flow; type: ADME, organism-based; conditions: in vivo
[4] = Fraction unbound in rat plasma at 5 uM after 4.5 hrs by HPLC-MS/MS method based rapid equilibrium dialysis; type: ADME, cell-free
Canis familiaris [5] = test: Toxicity in Beagle dog assessed as drug tolerability up to 20 mg/kg, po; type: organism-based, Canis lupus familiaris; conditions: in vivo
[6] = Cmax in Swiss mouse at 10 mg/kg, po administered as bolus dose by LC-MS/MS analysis; type: ADME, organism-based; set-up: dose 10 mg/kg, route oral; conditions: in vivo
TK6 = test: Genotoxicity in human TK6 cells at 80 ug/ml after 24 hrs in absence of rat liver S9 fraction by micronucleus assay; type: toxicity, cell-based; conditions: tk6, 24 h

Sequence of Cytochrome P450 3A4 (P08684 whole entry): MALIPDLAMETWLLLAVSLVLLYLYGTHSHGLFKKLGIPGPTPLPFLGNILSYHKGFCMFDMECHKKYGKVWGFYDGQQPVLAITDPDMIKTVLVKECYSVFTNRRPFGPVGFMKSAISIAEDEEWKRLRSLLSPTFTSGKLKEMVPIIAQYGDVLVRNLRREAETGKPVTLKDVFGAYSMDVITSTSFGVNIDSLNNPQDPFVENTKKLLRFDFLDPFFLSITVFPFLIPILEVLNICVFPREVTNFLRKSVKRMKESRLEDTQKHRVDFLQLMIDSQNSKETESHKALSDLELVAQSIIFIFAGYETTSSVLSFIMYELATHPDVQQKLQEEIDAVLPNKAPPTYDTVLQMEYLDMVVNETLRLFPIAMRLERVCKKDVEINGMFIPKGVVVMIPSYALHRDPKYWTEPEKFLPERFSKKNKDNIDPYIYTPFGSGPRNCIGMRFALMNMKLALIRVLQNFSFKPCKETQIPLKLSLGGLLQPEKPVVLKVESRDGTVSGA

In the case of `C[C@]1(c2cc(NC(=O)c3ccc(C#N)cn3)ccc2F)N=C(N)CO[C@H]1C(F)(F)F`, the Activity (Rattus norvegicus [1]) is reported as “Non-Toxic”, the t1/2 (Canis familiaris [2]) is reported as 12 h and the IC50 (Cytochrome P450 3A4) is reported as > 30 µM. For the same compound, the CL (Rattus norvegicus [3]) was 67%, the fraction unbound at 4.5 h, 5 µM [4] was 0.26 and the Activity (Canis familiaris [5]) was “Non-Toxic”. The Cmax [6] was 333 nM and the Activity (TK6) was “Non-Toxic”.
